Where “and” joins values, the source holds several entries; their conditions need not be identical. Equal values may be shown once.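 Exposure lasted 48 hours, with cells grown in 96-well plates and compounds tested at five concentrations. Here, GI50 denotes the concentration required for 50% inhibition of growth. TGI: total growth inhibition.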

One test deals with NCI/ADR-RES ovarian. As to the kind of experiment: growth of human tumour cells (NCI), 48 h.
On to `Cc1ccc(CN2CCC(C(=O)Nc3ccc(-c4cc5ccccc5[nH]4)cc3)CC2)o1`, for which the GI50 was above 100 µM and the TGI was above 100 µM.

Take `C=CCOc1ccc2c(C)cc(=O)oc2c1C`: the TGI was above 100 µM.

Consider `Nc1c(C(=O)c2cccc(CCS(N)(=O)=O)c2)cnn1-c1ccc(F)cc1`, for which the GI50 was above 25 µM and the TGI was above 25 µM.

Take `Cc1ccc2c(C)c3c(ccc4ccccc43)c[n+]2c1`: the GI50 was above 100 µM and the TGI was above 100 µM.

For `Fc1ccc(NC(=S)SCc2ccc3c(c2)OCO3)cc1F`, the TGI was 75.7 µM.

For `COc1cc2c(c(OC)c1OC)-c1ccc(NNC(N)=S)c(=O)cc1[C@@H](NC(C)=O)CC2`, the GI50 was 19.4 µM and the TGI is above 100 µM.

For `CCOC(=O)Cn1c(C(F)(F)F)nc2nc(Cl)c(Cl)nc21`, the TGI is above 100 µM.

As to `O=C1NC(=NCCc2cccc(F)c2)S/C1=C\c1ccc2ncccc2c1`, the GI50 was 10.8 µM and the TGI was above 25 µM.

On to `OC1CSSC1Cn1cnc2c(Nc3ccc(OCc4cccc(F)c4)c(Cl)c3)ncnc21` (stereo not drawn), for which the GI50 is 3.26 µM and the TGI was determined as 12.3 µM.

With `C[C@@H](Oc1cc(-n2cnc3ccc(CN4CCN(C)CC4)cc32)sc1C(N)=O)c1ccccc1C(F)(F)F`, the GI50 was 0.162 µM and 0.2 µM; the TGI was 14.3 µM and > 10 µM.

For a further test, the system named is SNB-19 CNS. Nature of the test: growth of human tumour cells (NCI), 48 h.
For the molecule `Cc1ccc(CN2CCC(C(=O)Nc3ccc(-c4cc5ccccc5[nH]4)cc3)CC2)o1`, the GI50 was above 100 µM and the TGI was above 100 µM.

`C=CCOc1ccc2c(C)cc(=O)oc2c1C` returned a TGI above 100 µM.

Take `Nc1c(C(=O)c2cccc(CCS(N)(=O)=O)c2)cnn1-c1ccc(F)cc1`: the GI50 was above 25 µM and the TGI is above 25 µM.

For the molecule `Cc1ccc2c(C)c3c(ccc4ccccc43)c[n+]2c1`, the GI50 was 2.84 µM and the TGI was determined as 24.7 µM.

Molecule `Fc1ccc(NC(=S)SCc2ccc3c(c2)OCO3)cc1F` showed a TGI of 39.3 µM.

For the molecule `COc1cc2c(c(OC)c1OC)-c1ccc(NNC(N)=S)c(=O)cc1[C@@H](NC(C)=O)CC2`, the GI50 was 0.558 µM and the TGI is above 100 µM.

Regarding `CCOC(=O)Cn1c(C(F)(F)F)nc2nc(Cl)c(Cl)nc21`, the TGI was above 96.2 µM.

As for `O=C1NC(=NCCc2cccc(F)c2)S/C1=C\c1ccc2ncccc2c1`, the GI50 is 14.1 µM and the TGI is above 25 µM.

For the molecule `OC1CSSC1Cn1cnc2c(Nc3ccc(OCc4cccc(F)c4)c(Cl)c3)ncnc21` (stereo not drawn), the GI50 is 2.14 µM and the TGI amounted to 7.22 µM.

With `C[C@@H](Oc1cc(-n2cnc3ccc(CN4CCN(C)CC4)cc32)sc1C(N)=O)c1ccccc1C(F)(F)F`, the GI50 is 0.0233 µM and 0.0162 µM; the TGI was 15.4 µM and > 10 µM.

A further test has as its system SNB-75 CNS. As to the kind of experiment: growth of human tumour cells (NCI), 48 h.
For the molecule `Cc1ccc(CN2CCC(C(=O)Nc3ccc(-c4cc5ccccc5[nH]4)cc3)CC2)o1`, the GI50 was 12.7 µM and the TGI worked out at 33.1 µM.

`C=CCOc1ccc2c(C)cc(=O)oc2c1C` gave a TGI above 100 µM.

As for `Nc1c(C(=O)c2cccc(CCS(N)(=O)=O)c2)cnn1-c1ccc(F)cc1`, the GI50 is above 25 µM and the TGI is above 25 µM.

Consider `Cc1ccc2c(C)c3c(ccc4ccccc43)c[n+]2c1`, for which the GI50 is 11.9 µM and the TGI turned out to be 40.3 µM.

`Fc1ccc(NC(=S)SCc2ccc3c(c2)OCO3)cc1F` returned a TGI of 66.8 µM.

`COc1cc2c(c(OC)c1OC)-c1ccc(NNC(N)=S)c(=O)cc1[C@@H](NC(C)=O)CC2` came in with a TGI above 100 µM.

Take `CCOC(=O)Cn1c(C(F)(F)F)nc2nc(Cl)c(Cl)nc21`: the TGI is above 100 µM.

Consider `O=C1NC(=NCCc2cccc(F)c2)S/C1=C\c1ccc2ncccc2c1`, for which the GI50 was 3.79 µM and the TGI was above 21.9 µM.

As for `OC1CSSC1Cn1cnc2c(Nc3ccc(OCc4cccc(F)c4)c(Cl)c3)ncnc21` (stereo not drawn), the GI50 was 4.16 µM and the TGI came out at 8.8 µM.

Take `C[C@@H](Oc1cc(-n2cnc3ccc(CN4CCN(C)CC4)cc32)sc1C(N)=O)c1ccccc1C(F)(F)F`: the GI50 was 0.0363 µM and 0.0249 µM.

A further test has as its system SR leukemia. Nature of the test: growth of human tumour cells (NCI), 48 h.
As for `Cc1ccc(CN2CCC(C(=O)Nc3ccc(-c4cc5ccccc5[nH]4)cc3)CC2)o1`, the GI50 was 4.3 µM and the TGI was above 100 µM.

In turn, `C=CCOc1ccc2c(C)cc(=O)oc2c1C` returned a TGI above 100 µM.

Take `Nc1c(C(=O)c2cccc(CCS(N)(=O)=O)c2)cnn1-c1ccc(F)cc1`: the GI50 was above 25 µM and the TGI is above 25 µM.

For the molecule `Cc1ccc2c(C)c3c(ccc4ccccc43)c[n+]2c1`, the GI50 was 3.75 µM and the TGI was 22.9 µM.

`Fc1ccc(NC(=S)SCc2ccc3c(c2)OCO3)cc1F`: the TGI came out at 43.9 µM.

Consider `COc1cc2c(c(OC)c1OC)-c1ccc(NNC(N)=S)c(=O)cc1[C@@H](NC(C)=O)CC2`, for which the GI50 was 0.279 µM and the TGI was above 100 µM.

For the molecule `CCOC(=O)Cn1c(C(F)(F)F)nc2nc(Cl)c(Cl)nc21`, the TGI is above 100 µM.

For the molecule `O=C1NC(=NCCc2cccc(F)c2)S/C1=C\c1ccc2ncccc2c1`, the GI50 is 0.121 µM and the TGI was above 25 µM.

Regarding `OC1CSSC1Cn1cnc2c(Nc3ccc(OCc4cccc(F)c4)c(Cl)c3)ncnc21` (stereo not drawn), the GI50 is 0.407 µM and the TGI is 1.59 µM.

For `C[C@@H](Oc1cc(-n2cnc3ccc(CN4CCN(C)CC4)cc32)sc1C(N)=O)c1ccccc1C(F)(F)F`, the GI50 was < 0.01 µM and 0.00514 µM; the TGI was 1.75 µM and 1.44 µM.

In a further test the test system is U251 CNS. As to the kind of experiment: growth of human tumour cells (NCI), 48 h.
As to `Cc1ccc(CN2CCC(C(=O)Nc3ccc(-c4cc5ccccc5[nH]4)cc3)CC2)o1`, the GI50 is 21 µM and the TGI is above 100 µM.

On to `C=CCOc1ccc2c(C)cc(=O)oc2c1C`, for which the TGI was above 100 µM.

With `Nc1c(C(=O)c2cccc(CCS(N)(=O)=O)c2)cnn1-c1ccc(F)cc1`, the GI50 was above 25 µM and the TGI was above 25 µM.

With `Cc1ccc2c(C)c3c(ccc4ccccc43)c[n+]2c1`, the GI50 was 2.8 µM and the TGI worked out at 18.6 µM.

In turn, `Fc1ccc(NC(=S)SCc2ccc3c(c2)OCO3)cc1F` displayed a TGI of 43.1 µM.

For the molecule `COc1cc2c(c(OC)c1OC)-c1ccc(NNC(N)=S)c(=O)cc1[C@@H](NC(C)=O)CC2`, the GI50 was 0.415 µM and the TGI is above 100 µM.

The molecule `CCOC(=O)Cn1c(C(F)(F)F)nc2nc(Cl)c(Cl)nc21` showed a TGI above 100 µM.

In the case of `O=C1NC(=NCCc2cccc(F)c2)S/C1=C\c1ccc2ncccc2c1`, the GI50 was 1.46 µM and the TGI is above 25 µM.

With `OC1CSSC1Cn1cnc2c(Nc3ccc(OCc4cccc(F)c4)c(Cl)c3)ncnc21` (stereo not drawn), the GI50 was 0.712 µM and the TGI turned out to be 1.43 µM.

With `C[C@@H](Oc1cc(-n2cnc3ccc(CN4CCN(C)CC4)cc32)sc1C(N)=O)c1ccccc1C(F)(F)F`, the GI50 is < 0.0137 µM and 0.0255 µM; the TGI was 15.6 µM and > 10 µM.

(Values after PubChem BioAssay (NCI).)
